# Data: patent US8598217B2, “Imidazole derivatives and their use as modulators of cyclin dependent kinases” (Astex Therapeutics Ltd., priority 2009, dated 2013)
# Like-named read-outs stand apart in the source and are kept apart here.
# Target: CDK4/cyclin D1 (Homo sapiens (Human), UniProt P11802)
# Assay: CDK4/cyclin D1 enzymatic activity assay (Protocol A, Lance TR-FRET)
# Format: biochemical
# Conditions: CDK4/cyclin D1, 175 nM pRb152, 3 μM ATP
# Protocol: A 384-well microtiter Lance TR-FRET (time-resolved-fluorescence energy transfer) endpoint assay was used for CDK4/cyclin D1 kinase activity measurements. The same assay was used for IC50 determination of small molecule inhibitors. In general, the kinase reactions were carried out in 30 μL volumes in the reaction solution containing the following: 2 μL compound (in 20% DMSO), 18 uL CDK4/cyclin D1 in Assay Buffer (50 mM HEPES, pH 7.5, 5 mM MgCl2, 2 mM MnCl2, 1 mM DTT, 0.05% BSA, 0.02% Tween-20), 10 μL of the mixture of pRb152 and ATP. The final reaction mixture contains compound (inhibitor) with the concentration varying from […], 2% DMSO, 0.3 nM CDK4/cyclin D1, 175 nM pRb152, and 3 μM ATP (Amersham Pharmacia, Cat. No. 27-2056-01). All reactions were run at room temperature in 384-well white flat-bottom OptiPlates (Perkin Elmer, Cat. No. 6007290) for 60 min then were quenched by the addition of 10 μL of 120 mM EDTA. The signals were captured by the addition of 40 μL of the Detection Solution containing the following: Detection Buffer (50 mM HEPES, pH 7.5, 30 mM EDTA, 0.1% Triton x-100, 0.05% BSA), 70 ng/mL anti-phospho-pRb(S780) (Cell Signaling Technology, Cat. No. 9307S), 1 nM Lance Eu-W1024-Rabbit anti-IgG (Perkin Elmer, Cat. No. AD0082), and 20 nM SureLight™ Allophycocyanin-Streptavidin (Perkin Elmer, Cat. No. CR130-100). The resulted solutions were incubated at room temperature for 2 hours before read on the Evision Multilabel Reader (Perkin Elmer, Envision 2102-0010). Note: IC50<0.005 nM or IC50>10 μM indicates the true IC50 is out of detection range.
# CDK4/cyclin D1 recombinant protein used in the enzymatic activity assay was prepared by coexpressing pDEST10-CDK4 (N-terminal His6) and pFastBacDual-GST-hCyclinD1 viruses in Sf21 cells. The overexpressed protein was purified by Ni-NTA affinity pull down to >80% pure by Sizing HPLC.
# [1] = bound stated, read-out: IC50 values against CDK4
# [2] = 60 min, room temperature, read-out: IC50 against CDK4 kinase
# Sequence of CDK4/cyclin D1 (P11802 whole entry): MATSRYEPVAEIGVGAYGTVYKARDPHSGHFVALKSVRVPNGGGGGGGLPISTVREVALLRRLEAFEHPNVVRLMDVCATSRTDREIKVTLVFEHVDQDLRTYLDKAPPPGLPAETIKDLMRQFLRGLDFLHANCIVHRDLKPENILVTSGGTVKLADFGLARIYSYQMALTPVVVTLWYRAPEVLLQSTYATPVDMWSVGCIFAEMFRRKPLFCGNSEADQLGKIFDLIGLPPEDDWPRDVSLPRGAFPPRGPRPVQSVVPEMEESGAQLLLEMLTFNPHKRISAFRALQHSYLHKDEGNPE
# Sequence of CDK4/cyclin D1 (P24385 whole entry partner): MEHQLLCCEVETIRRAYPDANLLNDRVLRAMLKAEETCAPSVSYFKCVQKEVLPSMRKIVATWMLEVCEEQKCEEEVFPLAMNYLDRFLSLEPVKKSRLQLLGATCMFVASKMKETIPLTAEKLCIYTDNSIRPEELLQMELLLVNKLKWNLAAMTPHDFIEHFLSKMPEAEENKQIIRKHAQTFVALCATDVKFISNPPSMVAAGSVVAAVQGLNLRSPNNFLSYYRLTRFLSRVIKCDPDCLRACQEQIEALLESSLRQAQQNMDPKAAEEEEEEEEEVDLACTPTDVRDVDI
smiles,measurement,setting,value
"Cc1nn(C)c(C)c1-c1cc(C(=O)c2nc3ccc(N4CCNC(C)(C)C4=O)nc3[nH]2)ccc1C#N [Example 209, 4-[5-(3,3-Dimethyl-2-oxo-piperazin-1-yl)-3H-imidazo[4,5-b]pyridine-2-carbonyl]-2-(1,3,5-trimethyl-1H-pyrazol-4-yl)-benzonitrile]",IC50,[1],< 10000 nM
"CN(C)C1CCN(c2ccc3[nH]c(C(=O)c4ccnc(-c5cncc6ccccc56)c4)nc3c2)CC1 [Example 89, [5-(4-Dimethylamino-piperidin-1-yl)-1H-benzoimidazol-2-yl]-(2-isoquinolin-4-yl-pyridin-4-yl)-methanone]",IC50,[2],4 nM
"CN(C)C1CCN(c2ccc3nc(C(=O)c4ccnc(-c5cncc6ccccc56)c4)[nH]c3n2)CC1 [Example 135, [5-(4-Dimethylamino-piperidin-1-yl)-3H-imidazo[4,5-b]pyridin-2-yl]-(2-isoquinolin-4-yl-pyridin-4-yl)-methanone]",IC50,[2],12 nM
same,IC50,[1],< 10000 nM
"COc1ccc(F)c(F)c1-c1cncc(C(=O)c2nc3cc(CN(C)C)ccc3[nH]2)c1 [Example 159, [5-(2,3-Difluoro-6-methoxy-phenyl)-pyridin-3-yl]-(5-dimethylaminomethyl-1H-benzoimidazol-2-yl)-methanone]",IC50,[1],< 10000 nM
"O=C(c1ccnc(-c2cncc3ccccc23)c1)c1nc2cc(OCC(O)CO)ccc2[nH]1 (stereo not drawn) [Example 98, [5-(2,3-Dihydroxy-propoxy)-1H-benzoimidazol-2-yl]-(2-isoquinolin-4-yl-pyridin-4-yl)-methanone]",IC50,[2],33 nM
same,IC50,[1],< 10000 nM
O=C(c1ccnc(-c2cncc3ccccc23)c1)c1nc2ccc(N3CCNCC3)nc2[nH]1 [Example 164],IC50,[2],24 nM
"COc1ccc(F)c(F)c1-c1cc(C(=O)c2nc3ccc(N4CCC(N(C)C)CC4)nc3[nH]2)ccn1 [Example 148, [5-(4-dimethylamino-piperidin-1-yl)-3H-imidazo[4,5-b]pyridin-2-yl]-[2-(2,3-difloro-6-methoxy-phenyl)-pyridin-4-yl]-methanone]",IC50,[2],67 nM
